Measurements as given in patent US20180325914A1, “INCREASING STORAGE OF VITAMIN A, VITAMIN D AND/OR LIPIDS” (Salk Institute for Biological Studies, priority 2014, published 2018).

How the values were obtained:
[1] = system: BRD2, BRD3, BRD4 (BETs) occupancy on chromatin; assay type: cell-based, human; conditions: LX-2 cells; 500 nM, 16 hr
Description: Cells were then harvested for ChIP assay. The experimental procedure for ChIP was as previously described.
The procedure was as previously described^5,31. Briefly, short DNA reads were demultiplexed using the Illumina CASAVA v1.8.2. […] Only tags that map uniquely to the genome were considered for further analysis. Subsequent peak calling and motif analysis were conducted using HOMER, a software suite for ChIP-Seq analysis. The methods for HOMER, which are described below, have been implemented and are freely available on the internet (biowhat.ucsd.edu/homer/). One tag from each unique position was considered to eliminate peaks resulting from clonal amplification of fragments during the ChIP-Seq protocol. Peaks were identified by searching for clusters of tags within a sliding 200 bp window, requiring adjacent clusters to be at least 1 kb away from each other. The threshold for the number of tags that determine a valid peak was selected for a false discovery rate of <0.01, as empirically determined by repeating the peak finding procedure using randomized tag positions. […] Peaks are annotated to gene products by identifying the nearest RefSeq transcriptional start site. Visualization of ChIP-Seq results was achieved by uploading custom tracks onto the UCSC genome browser.
BETs are chromatin regulators^7.

primary HSCs = experiment: qRT-PCR gene expression in primary murine HSCs; assay type: cell-based, mouse; conditions: JQ1 500 nM, RT-qPCR
C57BL/6J mice = experiment: CCl4 model of liver injury and fibrosis, preventive study; assay type: in vivo, mouse; conditions: JQ1 50 mg/kg IP
Description: The animals were terminated 72 hours after the final CCl4 injection and whole livers were collected for histological, cytological, biochemical and molecular analyses.
5 μm sections of formalin-fixed liver were stained following standard hematoxylin-eosin (H&E) and Sirius Red methods and reviewed by a pathologist who was blinded to the experimental conditions. Fibrosis was scored using the Ishak modified histological activity index (HAI) scoring system. Liver fibrosis was also quantified using Image J software on 10 non-contiguous Sirius Red stained sections. […] fibrosis was quantified using hydroxyproline assay. All images were obtained using a high-resolution Leica DFC420 digital camera mounted on an Olympus microscope equipped with ×4/0.13, ×10/0.30, ×20/0.50 and ×40/0.75 UplanFL N plan objective lenses and processed with the Leica Application Suite. Tissue hydroxyproline content was measured using a kit from Biovision (K555-100).
Liver samples were deparaffinized and rehydrated in PBS. Following antigen retrieval with the target retrieval solution (Dako, Glostrup, Denmark), endogenous peroxidase activity was blocked by incubation with 0.3% hydrogen peroxide. […]

[2] = system: pro-fibrotic gene expression (COL1A1) in LX-2 cells; experiment: qRT-PCR of pro-fibrotic gene expression in LX-2 cells; conditions: JQ1 500 nM, 16 hr vs DMSO

In the case of `Cc1sc2c(c1C)C(c1ccc(Cl)cc1)=N[C@@H](CC(=O)OC(C)(C)C)c1nnc(C)n1-2` [JQ1, (S)-tert-butyl 2-(4-(4-chlorophenyl)-2,3,9-trimethyl-6H-thieno[3,2-f][1,2,4]triazolo[4,3-a][1,4]diazepin-6-yl)acetate], the “BET occupancy at the COL1A1 enhancer locus (ChIP)” value [1] is reported as “significantly diminished”, the “PAF1 and CDK9 (elongation cofactors) on chromatin” value [1] is reported as “displaced” and the “occupancy of BETs on chromatin (ChIP-Seq)” value [1] is reported as “dramatically reduces”. The “recruitment of serine 2 phosphorylated form (S2p) of RNA Pol II” value [1] was “specific decrease”, the “sensitivity of BRD4 occupancy on super-enhancer regions to reduction, versus control enhancer regions” value [1] was “more sensitive” and the “serine 5 Pol II phospho-form (S5p)” value [1] was “little change”. The “Ccnd2 and Myc expression” value (primary HSCs) was “without perturbing”, the “induction of Pdgfrb and Ccnd1 during HSC activation” value (primary HSCs) was “disrupted induction” and the “liver fibrosis and markers of HSC activation” value (C57BL/6J mice; CCl4/JQ1 co-treated vs CCl4 mice, four weeks, Sirius red, hydroxyproline, Acta2, Ishak score) was “dramatic reduction”. For the same molecule, the “CCl4-induced key fibrotic marker genes in liver (mRNA-Seq)” value (C57BL/6J mice) was “significant suppression” and the “repression of COL1A1” value [2] was 4.5 fold.
